Results from patent US6184365A, “Anthracycline derivatives having 4-amino-2,4,6-trideoxy-2 fluoro-α-L-talopyranosyl group” (priority 1996, dated 2001).
Values after ≈ are worked out from the molar mass of the structure shown. “Also recorded” adds a separate entry of the source. Where two headings read alike, the source gives them in different places.

Assays:
[1] = earlier derivatives; comparison with daunomycin or adriamycin; cited from earlier work
[2] = earlier derivatives; cited from earlier work
[3] = cited from earlier work
Leukemia L-1210 cells = assay: Antitumor activity against leukemia in CDF1 mice inoculated with Leukemia L-1210 cells; format: in vivo, mouse; settings: for Increase (%) in life-span (T/C, %): i.p., once a day for 9 days, as hydrochloride; for antitumor activity against mouse Leukemia L-1210 cell compared with adriamycin: low dosages
Procedure: Thus, to evaluate the antitumor effects of the novel compounds of this invention against experimental tumors in animals, CDF1 mice (four mice per group) were intraperitoneally inoculated with cells of Leukemia L-1210 at an amount of 1×10^5 cells/mouse. Since an elapse of 24 hours from the inoculation of the leukemia cells, a test compound of this invention was administered intraperitoneally to the mice under test once a day for consecutive 9 days, with the test compound being given as its hydrochloride in the form of a solution in a physiological saline. […] In the meanwhile, mice of the control group (the untreated group) were administered only with physiological saline after the inoculation of the L-1210 cells. During the observation period, the number of the surviving mice was counted for both the treated group and the control group, and the mean survival days of mice of both the treated group and the control group were calculated. Then, the percentages (%) of the increase in the life-span of the treated mice was estimated, as T/C (%), in terms of the mean survival day (C) of the untreated mice of the control group and the mean survival day (T) of the treated mice of the treated group. For comparison purposes, similar tests were effected using daunomycin (as hydrochloride) and adriamycin (as hydrochloride). The mean survival day of mice of the control group (the untreated group) was 8 to 9 days, and the mean survival day of mice of the comparative groups having received the administration of daunomycin or adriamycin usually varied dependently on the dosage of the compound tested.
Incidentally, in respect of the fractional numbers parenthesized below the numerical values of increase (%) in the life-span, the denominator of the fraction denotes the number of mice tested in one test group but the numerator of the fraction denotes the number of mice which survived for 60 days or longer.

Solubility in water = format: physicochemical
[4] = test system: adriamycin-resistant P388 cells (P388/ADR); assay: Growth inhibition of adriamycin-resistant P388 cells (P388/ADR); format: cell-based, mouse; settings: for IC50: Mus musculus
Procedure: (§1) Adriamycin was used as a comparative compound and was tested in the same manner as above.

[5] = test system: human chronic myelogenous leukemia (K562); assay: Growth inhibition of human chronic myelogenous leukemia (K562); format: cell-based; settings: for IC50: Homo sapiens
Procedure: as §1
(§2) The different kinds of human cancer cells tested were six kinds indicated below, including human chronic myelogenous leukemia (K562), human vaginal melanoma (HMV-1), human nasopharyngeal carcinoma (KB), human gastric adenocarcinoma (MKN-1), human lung non-small cell carcinoma (PC-14) and human bladder carcinoma (T24).

[6] = test system: human gastric adenocarcinoma (MKN-1); assay: Growth inhibition of human gastric adenocarcinoma (MKN-1); format: cell-based; settings: for IC50: Homo sapiens
Procedure: as §1, §2

[7] = test system: human lung non-small cell carcinoma (PC-14); assay: Growth inhibition of human lung non-small cell carcinoma (PC-14); format: cell-based; settings: for IC50: Homo sapiens
Procedure: as §1, §2

[8] = test system: human nasopharyngeal carcinoma (KB); assay: Growth inhibition of human nasopharyngeal carcinoma (KB); format: cell-based
Procedure: as §1, §2

[9] = test system: human bladder carcinoma (T24); assay: Growth inhibition of human bladder carcinoma (T24); format: cell-based; settings: for IC50: Homo sapiens
Procedure: as §1, §2

[10] = test system: human vaginal melanoma (HMV-1); assay: Growth inhibition of human vaginal melanoma (HMV-1); format: cell-based
Procedure: as §1, §2

[11] = test system: various human cancer cells; assay: in vitro tests against various human cancer cells; format: cell-based; settings: for antitumor or anticancer activity compared with adriamycin: human cancer cells as well as mouse leukemia P388 and P388/ADR cells; for anticancer activities against various human cancer cells compared with adriamycin: in vitro
Procedure: as §1, §2

[12] = test system: mouse leukemia P388 cells; assay: Growth inhibition of mouse leukemia P388 cells; format: cell-based
Procedure: as §1

[13] = MKN-1, 72 hours, read-out: IC50
[14] = PC-14, 72 hours, read-out: IC50
[15] = HMV-1, 72 hours, read-out: IC50

Row | SMILES | antitumor activity [1] | solubility in water [2] | Increase (%) in life-span (T/C, %) (Leukemia L-1210 cells; 0.15 mg/kg/day) | Increase (%) in life-span (T/C, %) (Leukemia L-1210 cells; 0.3 mg/kg/day) | Increase (%) in life-span (T/C, %) (Leukemia L-1210 cells; 0.6 mg/kg/day) | Increase (%) in life-span (T/C, %) (Leukemia L-1210 cells; 1.25 mg/kg/day) | Increase (%) in life-span (T/C, %) (Leukemia L-1210 cells; 2.5 mg/kg/day) | Increase (%) in life-span (T/C, %) (Leukemia L-1210 cells; 5 mg/kg/day) | development of toxicity in words (Leukemia L-1210 cells; 2.5 to 5 mg/kg/day) | solubility (Solubility in water) | anticancer activity, folds higher than that of adriamycin [4] | IC50 ([4]; 72 hours, read-out: IC50) | IC50 ([5]; K562, 72 hours, read-out: IC50) | IC50 [6, 13] | number of mice which survived for 60 days or longer / number tested (Leukemia L-1210 cells; 1.25 mg/kg/day) | antitumor activity against mouse Leukemia L-1210 cell compared with adriamycin (Leukemia L-1210 cells) | IC50 [7, 14] | IC50 ([8]; KB, 72 hours, read-out: IC50) | IC50 ([9]; T24, 72 hours, read-out: IC50) | IC50 [10, 15] | other results
1 | COc1cccc2c1C(=O)c1c(O)c3c(c(O)c1C2=O)C[C@@](O)(C(=O)CO)C[C@@H]3O[C@@H]1O[C@@H](C)[C@@H](O)[C@@H](N)[C@H]1F [7-O-(3-amino-2,3,6-trideoxy-2-fluoro-α-L-talopyranosyl)adriamycinone] | antitumor activity a little higher than that of the latter | soluble in water |  |  |  |  |  |  |  |  |  |  |  |  |  |  |  |  |  |  | 
2 | COc1cccc2c1C(=O)c1c(O)c3c(c(O)c1C2=O)C[C@@](O)(C(=O)CO)C[C@@H]3O[C@@H]1O[C@@H](C)[C@@H](O)[C@@H](O)[C@H]1F [7-O-(2,6-Dideoxy-2-fluoro-α-L-talopyranosyl)adriamycinone] | remarkable antitumor activity | barely soluble in water |  |  |  |  |  |  |  |  |  |  |  |  |  |  |  |  |  |  | 
3 | COc1cccc2c1C(=O)c1c(O)c3c(c(O)c1C2=O)C[C@@](O)(C(C)=O)C[C@@H]3O[C@H]1C[C@H](N)[C@H](O)[C@H](C)O1 [Daunomycin, reference compound] |  |  | 132% | 112% | 145% | 158% | 171% | 138% | accompanied by the development of toxicity |  |  |  |  |  |  |  |  |  |  |  | side-effects ([3]; human, in vivo): serious side-effects such as leukocytopenia, alopecia, myocardiopathy and others
4 | COc1cccc2c1C(=O)c1c(O)c3c(c(O)c1C2=O)C[C@@](O)(C(=O)CO)C[C@@H]3O[C@@H]1O[C@@H](C)[C@@H](N)[C@@H](O)[C@H]1F [Compound (b), 7-O-(4-amino-2,4,6-trideoxy-2-fluoro-α-L-talopyranosyl)adriamycinone] |  |  | 155% | > 400% | > 403% | > 330% | 139% | 92% |  | 15 mg/mL (≈ 26700 µM) | 13.9 folds | 0.18 µg/mL (≈ 0.321 µM) | 0.063 µg/mL (≈ 0.112 µM) | 0.062 µg/mL (≈ 0.11 µM) | 1/4 | substantially equal to or higher than that of adriamycin | 0.12 µg/mL (≈ 0.214 µM) | 0.023 µg/mL (≈ 0.041 µM) | 0.026 µg/mL (≈ 0.0463 µM) | 0.056 µg/mL (≈ 0.0997 µM) | anticancer activity, folds higher than that of adriamycin ([5]; K562): 6.2 folds; anticancer activity, folds higher than that of adriamycin ([6]; MKN-1): 4 folds; antitumor activity (T/C, %) compared with daunomycin (Leukemia L-1210 cells; 0.15 mg/kg to 0.6 mg/kg): remarkably enhanced anticancer or antitumor activities; development of toxicity in words (Leukemia L-1210 cells; 0.3 mg/kg to 0.6 mg/kg): did not involve the development of toxicity; also recorded: the development of toxicities is not involved; number of mice which survived for 60 days or longer / number tested (Leukemia L-1210 cells; 0.3 mg/kg/day): 1/4; number of the mice surviving for 60 days (fully cured) (Leukemia L-1210 cells; 0.3 mg/kg~0.6 mg/kg, pooled): two in eight; number of mice which survived for 60 days or longer / number tested (Leukemia L-1210 cells; 0.6 mg/kg/day): 1/4; antitumor activity compared with adriamycin (Leukemia L-1210 cells; 0.3~0.6 mg/kg, adriamycin at 0.3~0.6 mg/kg): markedly enhanced anticancer or antitumor activities; anticancer activity, folds higher than that of adriamycin ([7]; PC-14): 5.2 folds; anticancer activity, folds higher than that of adriamycin ([9]; T24): 6.2 folds; antitumor or anticancer activity compared with adriamycin [11]: higher antitumor or anticancer activities than those of adriamycin; anticancer activities against various human cancer cells compared with adriamycin [11]: remarkably improved anticancer activities; IC50 ([12]; P388, 72 hours, read-out: IC50): < 0.0098 µg/mL
5 | COc1cccc2c1C(=O)c1c(O)c3c(c(O)c1C2=O)C[C@@](O)(C(=O)CO)C[C@@H]3O[C@H]1C[C@H](N)[C@H](O)[C@H](C)O1 [Adriamycin, reference compound] |  |  | 140% | 132% | 208% | 330% | 273% | 177% | accompanied by the development of toxicity |  |  |  |  |  |  |  |  |  |  |  | IC50 ([4]; 72 h): 2.5 µg/mL (≈ 4.6 µM); side-effects ([3]; clinical treatment of cancer-bearing patients): serious side-effects such as leukocytopenia, alopecia, myocardiopathy and others; IC50 ([5]; K562, 72 h): 0.39 µg/mL (≈ 0.718 µM); IC50 ([6]; MKN-1, 72 h): 0.25 µg/mL (≈ 0.46 µM); percentages of increase in the life-span (T/C, %) (Leukemia L-1210 cells; 2.5 to 5 mg/kg/day): about 330%; IC50 ([7]; PC-14, 72 h): 0.62 µg/mL (≈ 1.14 µM); IC50 ([8]; 72 h): 0.05 µg/mL (≈ 0.092 µM); IC50 ([9]; 72 h): 0.16 µg/mL (≈ 0.294 µM); IC50 ([10]; 72 h): 0.14 µg/mL (≈ 0.258 µM); IC50 ([12]; P388, 72 h): 0.032 µg/mL (≈ 0.0589 µM)
6 | COc1cccc2c1C(=O)c1c(O)c3c(c(O)c1C2=O)C[C@@](O)(C(C)=O)C[C@@H]3O[C@@H]1O[C@@H](C)[C@@H](N)[C@@H](O)[C@H]1F [Compound (a), 7-O-(4-amino-2,4,6-trideoxy-2-fluoro-α-L-talopyranosyl)daunomycinone] |  |  | 127% | 152% | 182% | > 463% | 235% | 175% |  | 10 mg/mL (≈ 18300 µM) | 29.1 folds | 0.086 µg/mL (≈ 0.158 µM) | 0.087 µg/mL (≈ 0.159 µM) | 0.12 µg/mL (≈ 0.22 µM) | 2/4 | substantially equal to or higher than that of adriamycin | 0.17 µg/mL (≈ 0.312 µM) | 0.028 µg/mL (≈ 0.0513 µM) | 0.047 µg/mL (≈ 0.0862 µM) | 0.071 µg/mL (≈ 0.13 µM) | antitumor activity compared with daunomycin (Leukemia L-1210 cells; 0.6~1.25 mg/kg): antitumor activities higher than those of daunomycin; antitumor or anticancer activity compared with adriamycin [11]: higher antitumor or anticancer activities than those of adriamycin; anticancer activities against various human cancer cells compared with adriamycin [11]: remarkably improved anticancer activities; IC50 ([12]; P388, 72 hours, read-out: IC50): < 0.0098 µg/mL
